According to patent publication US6143325A, “Nefazodone dosage form” (priority 1999, dated 2000):
Where a name gives a salt, the structure may show the parent alone.

Columns and labels:
[1] = system: cytochrome P450 (CPY) 3A4; details: cited from earlier work
monoamine oxidase = details: cited from earlier work
[2] = relative to tricyclic antidepressants; cited from earlier work
[3] = clinically effective doses of up to 450 mg three times a day; cited from earlier work
CYP2D6 = details: cited from earlier work
[4] = USP criteria; cited from earlier work
[5] = system: serotonin 5-HT2 receptors; details: in vivo; cited from earlier work
[6] = cited from earlier work
[7] = nefazodone and metabolite pharmacokinetics in human volunteers: ER v. IR; details: plasma, po
[8] = cited from earlier work; remark: listed apart in the source
serotonin re-uptake = details: in vivo; cited from earlier work
humans = details: in vivo; cited from earlier work
rodents = details: in vivo; cited from earlier work
rats = details: mediated through 5-HT2C or 5HT2B receptors; cited from earlier work

SMILES: O=c1[nH]n(CCCN2CCN(c3cccc(Cl)c3)CC2)c(=O)n1CCOc1ccccc1 [Dione]
- metabolism by CYP3A4 [1]: responsible for the further metabolism

SMILES: CCc1nn(CCCN2CCN(c3cccc(Cl)c3)CC2)c(=O)n1CCOc1ccccc1 [Nefazodone, 2-[3-[4-(3-chlorophenyl)-1-piperazinyl]-propyl-]5-ethyl-2,4-dihydro-4-(2-phenoxy-ethyl)-3H-1,2,4-triazol-3-one hydrochloride]
- monoamine oxidase inhibition (monoamine oxidase): does not inhibit monoamine oxidase
- anticholinergic, antihistamine, alpha-adrenergic and sedative activity [2]: decreased anticholinergic, antihistamine, alpha-adrenergic and sedative activity
- tolerability [3]: well-tolerated
- inhibition of CYP3A4 [1]: inhibits cytochrome P450 (CPY) 3A4
- metabolism by CYP3A4 [1]: metabolized by
- inhibition of CYP2D6 (CYP2D6): weak inhibitor of CYP2D6
- solubility in water [4]: sparingly soluble
- effect on serotonin 5-HT2 receptors [5]: blocks serotonin 5-HT2 receptors
- first-pass metabolism ([6]; in vivo): significant first-pass metabolism
- kinetics (dose proportionality) ([6]; plasma concentrations v. dose): non-linear kinetics
- Tmax ([7]; 100 mg): 2 h
- Tmax ([7]; 200 mg): 5 h
- dissociation constant (pKa) [8]: 6.4
- serotonin re-uptake inhibition (serotonin re-uptake): reversibly inhibits serotonin re-uptake

SMILES: CC(O)c1nn(CCCN2CCN(c3cccc(Cl)c3)CC2)c(=O)n1CCOc1ccccc1 (centres unmarked) [hydroxy-nef, hydroxynefazodone]
- metabolism by CYP3A4 [1]: responsible for the further metabolism

SMILES: Clc1cccc(N2CCNCC2)c1 [mCPP, m-chlorophenylpiperazine]
- effects in humans (humans): increase anxiety in humans (and can cause panic attacks), may precipitate migraine attacks in those susceptible to such attacks, can disrupt sleep, be hypophagic in humans also and may have psychotogenic effects
- effects in rodents (rodents): anxiogenic-like properties, causes hypoactivity, hypophagia, oral dyskinesia, penile erection and hyperthermia
- metabolism by CYP2D6 (CYP2D6): responsible for the metabolism of mCPP
- hypoglycemic effect (rats): dose-dependent hypoglycemic effect
